Biological target: T1, HaloTag protein (Rhodococcus rhodochrous, UniProt P0A3G2, A155T/A167V/A172T/A224E/C128F/C176G/D78G/E160K/E257K/H272N/K175M/K195N/L47V/L88M/N227D/S58T/T264A/Y273L/Y87F)
T1 construct: made in house; host or cells: E. coli (the text prints transformation into DH5a; BL21(DE3) was also purchased)
Test: HaloTag protein labeling, in-gel fluorescence (time- and concentration-dependent)
Assay type: biochemical
Conditions: HaloTag protein conjugated to alkyne 21′, 200 μM 22′, room temperature
Procedure: The viability of the reaction was evaluated both in vitro and in cells (FIG. 14A-FIG. 14B). Purified recombinant HaloTag protein (Los et al., ACS Chem. Biol. 3(6):373-382 (2008); Murrey et al., J. Am. Chem. Soc. 137(35):11461-11475 (2015)) was incubated with HaloTag linker-conjugated difluoropropargyl ether 21′ for 10 minutes at room temperature in pH 7.0 phosphate buffer to provide alkyne-conjugated protein. This protein was then treated with 200 μM TAMRA-N-methylhydroxylamine 22′ and analyzed at various time points by in-gel fluorescence.
Buffer A: pH 7.0, 50 mM NaH2PO4, 20 mM NaCl
A stock solution of HaloTag® protein (15.3 μL, 2.01 mg/mL in buffer A) was added to 29.7 μL of buffer A to prepare a HaloTag® working solution (solution A, 19.7 μM, 45 μL). […]
A solution of alkyne 21′ in DMSO (700 μM) was added to reactions C (0.22 μL) and D (1.10 μL). […] In-gel fluorescence was imaged with a Typhoon™ FLA 9500 (GE) at 532 nm with a photomultiplier tube (PMT) setting of 500 V. The experiment was carried out in triplicate (FIG. 21A-FIG. 21B). […]
A solution of alkyne 21′ in DMSO (700 μM) was added to reactions C (0.22 μL) and D (0.88 μL). […] In-gel fluorescence was imaged with a Typhoon™ FLA 9500 (GE) at 532 nm with a photomultiplier tube (PMT) setting of 500 V. The experiment was carried out in triplicate (FIG. 22A-FIG. 22B).

T1 sequence (P0A3G2 other isoform, or with tags, fused parts or gaps with the stated changes): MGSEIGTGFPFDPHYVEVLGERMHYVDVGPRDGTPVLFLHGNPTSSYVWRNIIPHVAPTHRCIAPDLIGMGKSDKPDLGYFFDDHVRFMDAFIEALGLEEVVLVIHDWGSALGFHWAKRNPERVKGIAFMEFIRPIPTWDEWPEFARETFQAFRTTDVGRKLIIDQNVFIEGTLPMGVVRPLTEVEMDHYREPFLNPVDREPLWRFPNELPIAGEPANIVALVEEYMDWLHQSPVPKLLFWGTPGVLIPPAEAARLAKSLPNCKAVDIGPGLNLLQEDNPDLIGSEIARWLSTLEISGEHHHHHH

With `CN(O)CCOCCNC(=O)c1ccc2c(c1)C1(OC2=O)c2ccc(N(C)C)cc2Oc2cc(N(C)C)ccc21` [compound 13, 3′,6′-bis(dimethylamino)-N-(2-(2-(hydroxy(methyl)amino)ethoxy)ethyl)-3-oxo-3H-spiro[isobenzofuran-1,9′-xanthene]-6-carboxamide] the “time at which fluorophore-labeled protein was observed” value was at most 1 min.
